Measurements: ChEMBL document CHEMBL1208782, “Synthesis and pharmacological validation of a novel series of non-steroidal FXR agonists” (Bioorg Med Chem Lett, 2010)

Legend:
[1] = molecular target: T1, Bile acid receptor (Homo sapiens) (UniProt Q96RI1); test: Agonist activity at human […] FXR LBD expressed in HEK293 cells coexpressing GAL4-DNA bindig domain and pFRluc by mammalian one-hybrid assay relative to GW-4064; format: functional, cell-based
T1 sequence (whole entry): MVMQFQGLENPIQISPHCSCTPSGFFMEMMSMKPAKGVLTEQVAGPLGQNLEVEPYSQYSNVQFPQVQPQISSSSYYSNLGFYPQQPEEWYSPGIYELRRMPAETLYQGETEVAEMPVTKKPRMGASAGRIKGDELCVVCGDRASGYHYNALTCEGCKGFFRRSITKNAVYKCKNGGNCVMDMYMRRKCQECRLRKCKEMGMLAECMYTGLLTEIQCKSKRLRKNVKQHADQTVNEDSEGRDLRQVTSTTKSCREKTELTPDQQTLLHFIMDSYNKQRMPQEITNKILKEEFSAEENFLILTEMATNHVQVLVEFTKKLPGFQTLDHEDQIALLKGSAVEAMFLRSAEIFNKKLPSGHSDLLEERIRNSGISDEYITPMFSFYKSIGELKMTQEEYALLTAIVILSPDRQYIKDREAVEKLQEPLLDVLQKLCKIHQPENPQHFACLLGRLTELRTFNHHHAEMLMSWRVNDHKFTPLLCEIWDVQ

Bile acid receptor [2] = molecular target: T2, Bile acid receptor (Homo sapiens, UniProt Q96RI1); test: Agonist activity at human […] FXR LBD expressed in HEK293 cells coexpressing GAL4-DNA bindig domain and pFRluc by mammalian one-hybrid assay; format: functional, cell-based
T2 sequence (Q96RI1 whole entry): T1 sequence (whole entry)

Bile acid receptor [3] = molecular target: T2, Bile acid receptor; test: Agonist activity at human GST-fused FXR LBD assessed as cofactor peptide interaction with receptor ligand binding domain by FRET assay
[4] = molecular target: T1, Bile acid receptor (Homo sapiens); test: Agonist activity at human GST-fused FXR LBD assessed as cofactor peptide interaction with receptor ligand binding domain by FRET assay relative to GW-4064
Bile acid receptor [5] = molecular target: T2, Bile acid receptor; test: Agonist activity at human full length FXR transfected in HEK293 cells coexpressing pTRexDest/pGL2promotor assessed as luciferase activity by direct reporter cellular assay; format: functional, cell-based
[6] = molecular target: T1, Bile acid receptor (Homo sapiens); test: Agonist activity at human full length FXR transfected in HEK293 cells coexpressing pTRexDest/pGL2promotor assessed as luciferase activity by direct reporter cellular assay relative to GW-4064; format: functional, cell-based

| Structure (SMILES) | Efficacy [1] [%] | EC50 (Bile acid receptor [2]; read-out: EC50) [nM] | EC50 (Bile acid receptor [3]) [nM] | Efficacy [4] [%] | EC50 (Bile acid receptor [5]; read-out: EC50) [nM] | Efficacy [6] [%] | EC50 (Bile acid receptor [2]; hek293) | EC50 (Bile acid receptor [5]; hek293) |
| --- | --- | --- | --- | --- | --- | --- | --- | --- |
| O=C(O)c1ccccc1OCc1ccc(OCc2c(-c3c(Cl)cccc3Cl)noc2C2CC2)nc1C(F)(F)F | 63 | 1710 | 434 | 91 | 611 | 33 |  |  |
| CC(C)c1onc(-c2c(Cl)cccc2Cl)c1COc1ccc(N(C)Cc2ccc(C(=O)NS(C)(=O)=O)cc2)c(C(F)(F)F)n1 | 64 | 221 | 40 | 105 | 11 | 67 |  |  |
| Cc1cc(OCc2c(-c3c(Cl)cccc3Cl)[n-][o+]c2C(C)C)ncc1[N+](=O)[O-] |  | 1000 | 89 |  | 1140 |  |  |  |
| O=C(O)c1ccc(OCc2ccc(OCc3c(-c4c(Cl)cccc4Cl)noc3C3CC3)nc2C(F)(F)F)cc1 | 59 | 95 | 76 | 86 | 38 | 42 |  |  |
| CC(C)c1onc(-c2c(Cl)cccc2Cl)c1COc1ccc(/C=C/c2cccc(C(=O)O)c2)c(Cl)c1 | 100 |  |  | 100 |  | 100 |  |  |
| Cc1cc(OCc2c(-c3c(Cl)cccc3Cl)noc2C(C)C)nc2ccccc12 | 40 | 536 | 147 | 104 | 878 | 68 |  |  |
| CC(C)c1onc(-c2c(Cl)cccc2Cl)c1COc1ccc(N(C)Cc2ccc(OCCO)cc2)c(C(F)(F)F)n1 | 43 | 1150 | 164 | 87 | 155 | 59 |  |  |
| Cc1nc(OCc2c(-c3c(Cl)cccc3Cl)noc2C(C)C)ccc1N(C)C(=O)c1ccc(C(=O)O)cc1 | 21 | 2030 | 365 | 95 | 1190 | 49 |  |  |
| CC(C)c1onc(-c2c(Cl)cccc2Cl)c1COc1ccc(N(C)Cc2ccc(CCC(=O)O)cc2)c(C(F)(F)F)n1 | 55 | 35 | 17 | 96 | 16 | 66 |  |  |
| CC(Oc1ccc(C(=O)O)cc1)c1ccc(OCc2c(-c3c(Cl)cccc3Cl)noc2C2CC2)nc1C(F)(F)F (stereo not given) | 70 | 189 | 352 | 89 | 611 | 33 |  |  |
| CC(c1ccc(OCc2c(-c3c(Cl)cccc3Cl)noc2C2CC2)nc1C(F)(F)F)N(C)c1ccc(C(=O)O)cc1 (stereo not given) | 55 | 208 | 179 | 102 | 182 | 57 |  |  |
| CC(C)c1onc(-c2c(Cl)cccc2Cl)c1COc1ccc(NC(=O)c2ccc(C(=O)O)cc2)c(C(F)(F)F)n1 | 21 | 474 | 452 | 109 | 385 | 48 |  |  |
| CC(C)c1onc(-c2c(Cl)cccc2Cl)c1COc1ccc(N(C)C(=O)c2ccc(C(=O)O)cc2)c(C(F)(F)F)n1 | 36 | 316 | 235 | 101 | 208 | 63 |  |  |
| O=C(O)c1cccc(OCc2ccc(OCc3c(-c4c(Cl)cccc4Cl)noc3C3CC3)nc2C(F)(F)F)c1 | 62 | 151 | 43 | 98 | 33 | 41 |  |  |
| CCN(Cc1ccc(C(=O)O)cc1)c1ccc(OCc2c(-c3c(Cl)cccc3Cl)noc2C2CC2)nc1C(F)(F)F | 54 | 180 | 194 | 94 | 113 | 43 |  |  |
| Cc1cc(C(F)(F)F)cc(OCc2c(-c3c(Cl)cccc3Cl)noc2C(C)C)n1 |  |  | 225 |  |  |  | Not Active | Not Active |
| Cc1cc(OCc2c(-c3c(Cl)cccc3Cl)noc2C(C)C)ncc1[N+](=O)[O-] | 58 |  |  | 101 |  | 76 |  |  |
